# Laboratory results published in patent US10066204B2, “Chemically labile peptide-presenting surfaces for cellular self-assembly” (Wisconsin Alumni Research Foundation, priority 2013, dated 2018).
# Read-outs that look alike come from different tables or passages of the source.
# Tests used:
# hESC (H1) = settings: for cell adhesion of the hESC monolayer by adhesion ligand on the array spot: FIG. 2B/2C
# Experimental: Gold slides were placed into a 150 mm glass Petri dish, covered with EtOH and sonicated for ˜1 minute using an ultrasonic bath (Bransonic 1510, Branson, Danbury, Conn.). Sonicated gold chips were then rinsed with EtOH and blown dry with N2. […] For spot shape, elastomeric stencils with arrays in the shape of circles, ovals, and oval cross were placed on a bare gold surface to form an array of wells having these shapes on the gold substrate. Wells were then filled with 1 mM ethanolic alkanethiolate solution and incubated for 10 minutes in a chamber containing a laboratory wipe soaked in ethanol to prevent evaporation during local SAM formation. Alkanethiolate solutions were then aspirated and wells were rinsed with DIUF H2O. Carboxylate groups were then converted to active ester groups by adding a solution of 100 mM NHS and 250 mM EDC in DIUF H2O pH 5.5 to wells and incubated for 10 minutes. After an additional rinse with DIUF H2O, 300 μM solutions of […] (SEQ ID NO: 5; commercially available from GenScript, Piscataway, N.J.) or […] (SEQ ID NO: 6; commercially available from GenScript, Piscataway, N.J.) in PBS and pH 7.4 were added to each well and incubated for 1 hour in a humidity controlled chamber to covalently couple peptides to each array spot. After a final rinse in DIUF H2O, regions surrounding array spots were backfilled with HS—C11-EG3-OH. This was accomplished by submerging the gold substrate and attached elastomeric stencil in an aqueous 0.1 mM HS—C11-EG3-OH solution (pH 2.0), removing the stencil, and incubating for 10 minutes. Following backfilling, the array was rinsed with 0.1 wt % SDS in DIUF H2O, DIUF H2O, and EtOH and then dried under a stream of N2. Arrays were stored in sterile DIUF H2O at 4° C. and used within 24 hours.
# Pluripotent stem cells were seeded on arrays at a density of 10^5 cells/cm^2. […] Colonies that spontaneously detached from SAM spots were also harvested. Colonies were analyzed for Oct 3/4 and Nanog expression by immunofluorescence using DAPI to stain nuclei.
# The concentration of the integrin adhesion peptides […] (SEQ ID NO: 1) and cyclic RGD (SEQ ID NO: 4) on the array spot was varied between 2% and 10% by the fraction of COOH groups functionalized with peptides present at the spot among background OH functionalities.
# After initial attachment of the cells to the glycosaminoglycan binding peptide […]
# Specifically, a 1:1 functionalization with cyclic RGD (SEQ ID NO: 4) and […]
# [1] = test system: hESC monolayers (H1 hESC line); settings: for change in hESC colony projected area (indicative of aggregate self-assembly): both 5% COOH and 0.5% COOH SAMs; for effect of soluble peptide on kinetics of aggregate assembly: 0.1 mM soluble peptide in culture media
# Experimental: Gold slides were placed into a 150 mm glass Petri dish, covered with EtOH and sonicated for 2 minutes using an ultrasonic bath (Bransonic 1510, Branson, Danbury, Conn.). Sonicated gold chips were then rinsed with EtOH and blown dry with N2. […] Wells were then filled with 1 mM ethanolic alkanethiolate solution and incubated for approximately 10 minutes at room temperature in a chamber containing a laboratory wipe soaked in ethanol to prevent evaporation during local SAM formation. Alkanethiolate solutions were then aspirated and wells were rinsed with DIUF H2O. Carboxylate groups were then converted to active ester groups by adding a solution of 100 mM NHS and 250 mM EDC (in pH 5.5 DIUF H2O) to wells and incubating for 15 minutes. After an additional rinse with DIUF H2O, 300 μM solutions of peptide(s) in pH 7.4 PBS were added to each well and incubated for 1 hour in a humidity-controlled chamber at room temperature to covalently couple peptides to each array spot. After a final rinse in DIUF H2O, regions surrounding array spots were backfilled with HS—C11-EG3-OH. This was accomplished by submerging the gold substrate and attached elastomeric stencil in an aqueous 0.1 mM HS—C11-EG3-OH solution (pH 2.0), removing the stencil, and incubating for 10 minutes. Following backfilling, the array was rinsed with 0.1 wt % SDS in DIUF H2O, DIUF H2O, and EtOH, and then dried under a stream of N2. Arrays were stored away from light in diH2O at room temperature and used within 24 hours.
# Pluripotent stem cells (H1 hESC line) were seeded on arrays at a density of approximately 2×10^5 cells/cm^2 to achieve confluent monolayers within 4 hours.
# (§1) Time lapse images were analyzed using edge detection software to track projected area of colonies with respect to initial colony area over time. A t50 of self-assembly was defined as the length of time required for a given patterned cell monolayer to reach 50% of its original 2D projected area, as assessed by automated edge detection. This metric is used throughout this specification to describe differences in the kinetics of aggregate self-assembly between different cell types and in different conditions.
# hESC monolayers [2] = settings: 5% SAMs
# Experimental: Colonies were analyzed for Oct4 and Nanog expression by immunofluorescence using DAPI to stain nuclei.
# Self-assembled EBs formed from largely pluripotent 2D hESC populations. hESC monolayers cultured on array spots were stained for pluripotency markers Oct4 and Nanog, as well as DAPI to identify cell nuclei. […] Quantification of positive staining for Oct4 and Nanog, relative to number of cells as quantified by DAPI staining, is shown in FIG. 25B. […] Nanog was expressed by 89% and 93% of hESCs in monolayers at 4 hours and 24 hours, respectively.
# hESCs (H1 line) = settings: EBs from 5% SAMs, 24 hours post-assembly
# hESC monolayers [3] = settings: 5% SAMs, circular spots of 1.2 mm diameter
# Experimental: Polymer stencils containing arrays of wells were created using soft lithography. Master molds containing arrays of 1.2 mm, 1.8 mm, and 2.4 mm diameter circular posts or oval-shaped or quatrefoil-shaped posts were fabricated from SU-8 (Microchem, Newton, Mass.) spin-coated silicon wafers using conventional photolithography techniques. Polydimethylsiloxane (PDMS) (Sylgard 184, Dow Corning, Midland, Mich.) was prepared by mixing a 10:1 ratio of base:curing agent (w/w) followed by degassing for approximately 45 minutes. The degassed mixture was cast over the mold and cured for 6 hours at 80° C. Following curing, PDMS stencils were removed from molds and cleaned in hexane using overnight Soxhlet extraction.
# hMSC monolayers = test system: hMSC monolayers
# Experimental: as §1
# hMSCs or hDFs were seeded on arrays at a density of ˜1×10^5 cells/cm^2 to achieve confluent monolayers within 4 hours. Cells were cultured on SAMs in αMEM media containing 10% fetal bovine serum (FBS) for 2 hours after seeding. At this time, SAM arrays were rinsed in basal medium to remove nonspecifically adhered cells and replaced in fresh αMEM+10% FBS.
# In this Example, the beginning of self-assembly is characterized by the time point at which an evident decrease in projected area of the cell monolayer first occurs. The completion of self-assembly is considered the time point at which no further decreases in monolayer projected area occur, and is marked by the appearance of a plateau in graphical traces of monolayer projected area (see FIG. 28A).
substance,measurement,setting,value
CGKKQRFRHRNRKG,cell adhesion of the hESC monolayer by adhesion ligand on the array spot,hESC (H1),significantly less cell attachment
same,time until cells detached after initial attachment,hESC (H1); array spots presenting the peptide,≤ 12 h
cyclo(RGDFDK) [reference compound],cellular self-assembly behavior of hESC monolayers,[1]; 5% COOH SAMs,no cellular self-assembly behavior
same,change in hESC colony projected area (indicative of aggregate self-assembly),[1],no such decreases
same,detachment of hESC monolayers,[1]; over 96 hours,no observable detachment
KRTGQYKL,cell adhesion of the hESC monolayer by adhesion ligand on the array spot,hESC (H1),no significant adhesion
GWGGRGDSP,cell adhesion of the hESC monolayer by adhesion ligand on the array spot,hESC (H1),best cell adhesion
cyclo(RADFDK) [reference compound],effect of soluble peptide on kinetics of aggregate assembly,[1]; hESC on 5% cyclo(RGDFDC) SAMs,no evident effect
GWGGRGESP [reference compound],cell adhesion of the hESC monolayer by adhesion ligand on the array spot,hESC (H1),No significant differences
cyclo(RGDFDC),hESCs in monolayers expressing Nanog,hESC monolayers [2]; 4 hours after seeding,89%
same,hESCs in monolayers expressing Oct4,hESC monolayers [2]; 4 hours after seeding,greater than 97%
same,hESCs in monolayers expressing Nanog,hESC monolayers [2]; 24 hours after seeding,93%
same,hESCs in monolayers expressing Oct4,hESC monolayers [2]; 24 hours after seeding,93%
same,Nanog+ cells dissociated from EBs,hESCs (H1 line),approximately 91%
same,Oct4+ cells dissociated from EBs,hESCs (H1 line),approximately 99%
same,time to form self-assembled EBs,hESC monolayers [3],≤ 72 h
same,hESC cell adhesion as a function of adhesion ligand density,"hESC (H1); 2% COOH fraction compared to 5% COOH, 4 to 48 hours in culture",significantly lower cell adhesion
same,hESC cell adhesion as a function of adhesion ligand density,hESC (H1); 10% COOH fraction compared to 5% COOH,did not lead to an improved attachment
same,cell adhesion of the hESC monolayer by adhesion ligand on the array spot,hESC (H1),best cell adhesion
same,beginning of self-assembly after initial seeding,hMSC monolayers,≤ 24 h
same,completion of self-assembly after initial seeding,hMSC monolayers,≤ 36 h
same,t50 of self-assembly of hMSCs,hMSC monolayers,approximately 30 hours
same,effect of soluble peptide on kinetics of aggregate assembly,[1]; hESC on 5% cyclo(RGDFDC) SAMs,most rapid aggregate assembly
same,time of forming three-dimensional cellular aggregates floating in suspension,[1]; 5% COOH SAMs,72 to 96 h
same,effect of soluble peptide on kinetics of aggregate assembly versus control,"[1]; […] soluble peptide in culture media, hESC on 5% cyclo(RGDFDC) SAMs",faster aggregate assembly
same,change in hESC colony projected area (indicative of aggregate self-assembly),[1],evident decreases
same,t50 of self-assembly,"[1]; hESC, 0.01% peptide SAMs",approximately 14 hours
same,t50 of self-assembly,"[1]; hESC, 0.5% COOH SAMs",approximately 22 hours
same,beginning of the self-assembly process after initial seeding,"[1]; hESC, 5% COOH SAMs",40 to 48 h
same,completion of the self-assembly process after initial seeding,"[1]; hESC, 5% SAMs",≤ 72 h
same,t50 of self-assembly,"[1]; hESC, 5% peptide SAMs",approximately 45 hours
